Source: patent US20260285850A1, “SUBSTITUTED OXAZOLIDINONES AND IMIDAZOLINONES AS HERBICIDES” (FMC CORPORATION, priority 2023, published 2026)

Key:
Format in all cases: in vivo
[1] = system: barnyardgrass (Echinochloa crus-galli); assay: Test A preemergence soil spray, visual injury rating 0-100; details: 10 days
Method in brief: (§1)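 Seeds sown in loam-sand blend got a preemergence directed soil spray, or emerged plants (2-10 cm, one- to two-leaf) got a postemergence spray, of compound in non-phytotoxic solvent with surfactant. After 10 days in greenhouse, injury rated visually versus untreated controls on a 0 (no effect) to 100 (complete control) scale.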

[2] = system: blackgrass (Alopecurus myosuroides); assay: as above; details: 10 days
Method in brief: as §1

corn (Zea mays) [3] = assay: as above; details: 10 days
Method in brief: as §1

[4] = system: green foxtail (Setaria viridis); assay: as above; details: 10 days
Method in brief: as §1

kochia (Bassia scoparia) [5] = assay: as above; details: 10 days
Method in brief: as §1

[6] = system: oat, wild (wild oat, Avena fatua); assay: as above; details: 10 days
Method in brief: as §1

[7] = system: palmer (palmer amaranth, palmer pigweed, Amaranthus palmeri); assay: as above; details: 10 days
Method in brief: as §1

[8] = system: ragweed (common ragweed, Ambrosia artemisiifolia); assay: as above; details: 10 days
Method in brief: as §1

[9] = system: ryegrass, Italian (italian ryegrass, Lolium multiflorum); assay: as above; details: 10 days
Method in brief: as §1

soybean (Glycine max) [10] = assay: as above; details: 10 days
Method in brief: as §1

[11] = system: wheat (Triticum aestivum); assay: as above; details: 10 days
Method in brief: as §1

[12] = system: barnyardgrass (Echinochloa crus-galli); assay: Test A postemergence application, visual injury rating 0-100
Method in brief: as §1

[13] = system: blackgrass (Alopecurus myosuroides); assay: as above
Method in brief: as §1

corn (Zea mays) [14] = assay: as above
Method in brief: as §1

[15] = system: galium (catchweed bedstraw, Galium aparine); assay: as above
Method in brief: as §1

[16] = system: green foxtail (Setaria viridis); assay: as above
Method in brief: as §1

[17] = system: horseweed (Erigeron canadensis); assay: as above
Method in brief: as §1

kochia (Bassia scoparia) [18] = assay: as above
Method in brief: as §1

[19] = system: oat, wild (wild oat, Avena fatua); assay: as above
Method in brief: as §1

[20] = system: palmer (palmer amaranth, palmer pigweed, Amaranthus palmeri); assay: as above
Method in brief: as §1

[21] = system: ragweed (common ragweed, Ambrosia artemisiifolia); assay: as above
Method in brief: as §1

[22] = system: ryegrass, Italian (italian ryegrass, Lolium multiflorum); assay: as above
Method in brief: as §1

soybean (Glycine max) [23] = assay: as above
Method in brief: as §1

[24] = system: wheat (Triticum aestivum); assay: as above
Method in brief: as §1

[25] = system: barnyardgrass (Echinochloa crusgalli); assay: Test B flooded paddy test, visual plant response rating 0-100; details: 250 g ai/ha, Flood, applied to paddy water, evaluated after 13 days
Method in brief: (§2)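 Plants were grown to the 2-leaf stage, then pots were flooded to 3 cm above the soil and test compounds were applied directly into the paddy water. Water depth was held there throughout; after 13 days in a greenhouse, injury was scored visually against untreated controls.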

[26] = system: ducksalad (Heteranthera limosa); assay: as above; details: 250 g ai/ha, Flood, applied to paddy water, evaluated after 13 days
Method in brief: as §2

rice (Oryza sativa) = assay: as above; details: 250 g ai/ha, Flood, applied to paddy water, evaluated after 13 days
Method in brief: as §2

[27] = system: sedge, umbrella (small-flower umbrella sedge, Cyperus difformis); assay: as above; details: 250 g ai/ha, Flood, applied to paddy water, evaluated after 13 days
Method in brief: as §2

[28] = 62 g ai/ha, 0 = no effect, 100 = complete control
[29] = 62 g ai/ha, postemergence, 10 days, 0 = no effect, 100 = complete control
[30] = Postemergence, 16 g ai/ha, greenhouse 10 days, 0 no effect, 100 complete control

## CC1(C(=O)NC2CC=C(C(=O)O)C2)CN(c2cc(F)cc(F)c2)C(=O)O1 (stereo not shown) [Compound 94]
[1]; 16 g ai/ha, 0 to 100 scale
  Barnyardgrass plant response rating: 40
[1]; [28]
  Barnyardgrass plant response rating (0-100): 100
[2]; 16 g ai/ha, 0 to 100 scale
  Blackgrass plant response rating: 30
[2]; [28]
  Blackgrass plant response rating (0-100): 60
Corn (Zea mays) [3]; 16 g ai/ha, 0 to 100 scale
  Corn plant response rating: 40
Corn (Zea mays) [3]; [28]
  Corn plant response rating (0-100): 80
[4]; 16 g ai/ha, 0 to 100 scale
  Foxtail, Green plant response rating: 10
[4]; [28]
  Foxtail, Green plant response rating (0-100): 90
Kochia (Bassia scoparia) [5]; 16 g ai/ha, 0 to 100 scale
  Kochia plant response rating: 0
Kochia (Bassia scoparia) [5]; [28]
  Kochia plant response rating (0-100): 90
[6]; 16 g ai/ha, 0 to 100 scale
  Oat, Wild plant response rating: 10
[6]; [28]
  Oat, Wild plant response rating (0-100): 50
[7]; 16 g ai/ha, 0 to 100 scale
  Pigweed, Palmer plant response rating: 20
[7]; [28]
  Pigweed, Palmer plant response rating (0-100): 60
[8]; 16 g ai/ha, 0 to 100 scale
  Ragweed plant response rating: 20
[8]; [28]
  Ragweed plant response rating (0-100): 40
[9]; 16 g ai/ha, 0 to 100 scale
  Ryegrass, Italian plant response rating: 60
[9]; [28]
  Ryegrass, Italian plant response rating (0-100): 70
Soybean (Glycine max) [10]; 16 g ai/ha, 0 to 100 scale
  Soybean plant response rating: 10
Soybean (Glycine max) [10]; [28]
  Soybean plant response rating (0-100): 30
[11]; 16 g ai/ha, 0 to 100 scale
  Wheat plant response rating: 60
[11]; [28]
  Wheat plant response rating (0-100): 90
[12]; [29]
  Barnyardgrass plant response rating (0-100): 100
[12]; [30]
  Barnyardgrass plant response rating (0 to 100 scale): 100
[13]; [29]
  Blackgrass plant response rating (0-100): 90
[13]; [30]
  Blackgrass plant response rating (0 to 100 scale): 80
Corn (Zea mays) [14]; [29]
  Corn plant response rating (0-100): 100
Corn (Zea mays) [14]; [30]
  Corn plant response rating (0 to 100 scale): 100
[15]; [29]
  Galium plant response rating (0-100): 90
[15]; [30]
  Galium plant response rating (0 to 100 scale): 70
[16]; [29]
  Foxtail, Green plant response rating (0-100): 90
[16]; [30]
  Foxtail, Green plant response rating (0 to 100 scale): 60
[17]; [29]
  Horseweed plant response rating (0-100): 60
[17]; [30]
  Horseweed plant response rating (0 to 100 scale): 20
Kochia (Bassia scoparia) [18]; [29]
  Kochia plant response rating (0-100): 90
Kochia (Bassia scoparia) [18]; [30]
  Kochia plant response rating (0 to 100 scale): 80
[19]; [29]
  Oat, Wild plant response rating (0-100): 90
[19]; [30]
  Oat, Wild plant response rating (0 to 100 scale): 40
[20]; [29]
  Pigweed, Palmer plant response rating (0-100): 90
[20]; [30]
  Pigweed, Palmer plant response rating (0 to 100 scale): 50
[21]; [29]
  Ragweed plant response rating (0-100): 50
[21]; [30]
  Ragweed plant response rating (0 to 100 scale): 50
[22]; [29]
  Ryegrass, Italian plant response rating (0-100): 90
[22]; [30]
  Ryegrass, Italian plant response rating (0 to 100 scale): 70
Soybean (Glycine max) [23]; [29]
  Soybean plant response rating (0-100): 70
Soybean (Glycine max) [23]; [30]
  Soybean plant response rating (0 to 100 scale): 60
[24]; [29]
  Wheat plant response rating (0-100): 90
[24]; [30]
  Wheat plant response rating (0 to 100 scale): 60
[25]
  Plant response rating, Barnyardgrass (0 to 100 scale, 0 is no effect and 100 is complete control): 95
[26]
  Plant response rating, Ducksalad (0 to 100 scale, 0 is no effect and 100 is complete control): 95
Rice (Oryza sativa)
  Plant response rating, Rice (0 to 100 scale, 0 is no effect and 100 is complete control): 75
[27]
  Plant response rating, Sedge, Umbrella (0 to 100 scale, 0 is no effect and 100 is complete control): 95
